From patent publication US4999371A, “Substituted 3,4-dihydro-2H-benzopyrans, processes for their preparation, their use and pharmaceutical products based on these compounds” (Hoechst Aktiengesellschaft, priority 1987, dated 1991)

System: Langendorff heart preparation
Test: Coronary flow in the Langendorff heart preparation of Guinea pigs
Settings: 6 heart preparations
Protocol: Coronary flow in the Langendorff heart preparation of Guinea pigs
Guinea pigs of either sex were killed by a blow on the head. The hearts were quickly removed and perfused according to Langendorff (Langendorff, Pflugers Arch. Ges. Physiol. 190, 280 (1895)) with a Ringer solution containing 154 mMol NaCl, 5,6 mMol KCl, 1,9 mMol CaCl2, 2,4 mMol NaHCO3 and 5 mMol glucose which was gassed with oxygen. The temperature of the solution was 37° C. The test substances dissolved in propanediol (0,1%) were added to the inflowing Ringer solution by bolus injection into the inflow tract. The effect, i.e. changes of the coronary outflow, was measured with a drop counter and registered on a Hellige Multiscriptor (Hellige GmbH, Freiburg, Germany) For each compound increase in coronary outflow was measured for three different doses and each dose was tested in 6 different heart preparations.

SMILES | Duration of elevated coronary outflow (single dose 500 ng) [min] | also measured
CC1(C)Oc2ccc(S(C)(=O)=O)cc2[C@@H](N2CCCC2=O)[C@@H]1O (racemic) [(±)-2,2-Dimethyl-3,4-dihydro-6-methylsulfonyl-trans-4-(2-oxo-1-pyrrolidinyl)-2H-benzo[b]pyran-3-ol, reference compound] | – | Duration of elevated coronary outflow (single dose 2000 ng): 5 min
CC1(C)Oc2ccc(C#N)cc2[C@@H](N2CCCC2=O)[C@@H]1O (racemic) [(±)-6-Cyano-3,4-dihydro-2,2-dimethyl-trans-4-(2-oxo-1-pyrrolidinyl)-2H-benzo[b]pyran-3-ol, reference compound] | 6 | –
COc1cc2c(cc1S(=O)(=O)c1ccccc1)[C@@H](N1CCCC1=O)[C@H](O)C(C)(C)O2 (relative stereo) [Example 3, 3,4-Dihydro-2,2-dimethyl7-methoxy-6-phenylsulfonyl-trans-4-(2-oxo-1-pyrrolidinyl)-2H -benzo[b]-3-ol] | 14 | –
Cc1ccc(S(=O)(=O)c2ccc3c(c2)[C@@H](N2CCCC2=O)[C@H](O)C(C)(C)O3)cc1 (relative stereo) [Example 4, 3,4-Dihydro-2,2-dimethyl-6-(4-methylphenylsulfonyl)-trans-4-(2-oxo-1-pyrrolidinyl)-2H -benzo[b]pyran-3-ol] | 11 | –
CC1(C)Oc2ccc(S(=O)(=O)c3ccccc3)cc2[C@@H](N2CCCC2=O)[C@@H]1O (relative stereo) [Example 5, 3,4-Dihydro-2,2-dimethyl-6-phenylsulfonyl-trans-4-(2-oxo1-pyrrolidinyl)-2H-benzo[b]pyran-3-ol] | – | Duration of elevated coronary outflow (single dose 400 ng): 11 min
Cc1ccccc1S(=O)(=O)c1ccc2c(c1)[C@@H](N1CCCC1=O)[C@H](O)C(C)(C)O2 (relative stereo) [Example 14, 3,4-Dihydro-2,2-dimethyl-6-(2-methylphenylsulfonyl)-trans4-(2-oxo-1-pyrrolidinyl)-2H-benzo [b]pyran-3-ol] | – | Duration of elevated coronary outflow (single dose 200 ng): 13 min
CC1(C)Oc2ccc(S(=O)(=O)c3ccccc3)cc2[C@@H](N2CCCC2=O)[C@@H]1O (single isomer, unassigned) [Example 5a, (+)-3,4-Dihydro-2,2-dimethyl-6-phenylsulfonyl-4-(2-oxo-1-pyrrolidinyl)-2H-benzo[b]pyran-3-ol] | – | Duration of elevated coronary outflow (single dose 100 ng): 13 min
COc1cc2c(cc1S(=O)(=O)c1ccccc1)[C@@H](N1CCCC1=O)[C@H](O)C(C)(C)O2 [Example 3a, (+)-3,4-dihydro-2,2-dimethyl-7-methoxy-6-phenylsulfonyl-trans-4-(2-oxo-1-pyrrolidinyl)-2H-benzo[b]pyran-3-ol] | 11 | –
